In this assay the target is T1, PI3Kδ (Homo sapiens, UniProt O00329).
T1 construct: Full length p110 subunits of PI3k α, β and δ, N-terminally labeled with polyHis tag; polyHis (N); made in house; host or cells: Sf9 insect cells (baculovirus)
The assay can be described thus: PI3Kδ Alphascreen assay. It counts as biochemical. In general terms: In Alpha technology, singlet oxygen from a donor bead excites a nearby acceptor bead.

Molecules are shown by their SMILES.

T1 sequence (O00329 whole entry): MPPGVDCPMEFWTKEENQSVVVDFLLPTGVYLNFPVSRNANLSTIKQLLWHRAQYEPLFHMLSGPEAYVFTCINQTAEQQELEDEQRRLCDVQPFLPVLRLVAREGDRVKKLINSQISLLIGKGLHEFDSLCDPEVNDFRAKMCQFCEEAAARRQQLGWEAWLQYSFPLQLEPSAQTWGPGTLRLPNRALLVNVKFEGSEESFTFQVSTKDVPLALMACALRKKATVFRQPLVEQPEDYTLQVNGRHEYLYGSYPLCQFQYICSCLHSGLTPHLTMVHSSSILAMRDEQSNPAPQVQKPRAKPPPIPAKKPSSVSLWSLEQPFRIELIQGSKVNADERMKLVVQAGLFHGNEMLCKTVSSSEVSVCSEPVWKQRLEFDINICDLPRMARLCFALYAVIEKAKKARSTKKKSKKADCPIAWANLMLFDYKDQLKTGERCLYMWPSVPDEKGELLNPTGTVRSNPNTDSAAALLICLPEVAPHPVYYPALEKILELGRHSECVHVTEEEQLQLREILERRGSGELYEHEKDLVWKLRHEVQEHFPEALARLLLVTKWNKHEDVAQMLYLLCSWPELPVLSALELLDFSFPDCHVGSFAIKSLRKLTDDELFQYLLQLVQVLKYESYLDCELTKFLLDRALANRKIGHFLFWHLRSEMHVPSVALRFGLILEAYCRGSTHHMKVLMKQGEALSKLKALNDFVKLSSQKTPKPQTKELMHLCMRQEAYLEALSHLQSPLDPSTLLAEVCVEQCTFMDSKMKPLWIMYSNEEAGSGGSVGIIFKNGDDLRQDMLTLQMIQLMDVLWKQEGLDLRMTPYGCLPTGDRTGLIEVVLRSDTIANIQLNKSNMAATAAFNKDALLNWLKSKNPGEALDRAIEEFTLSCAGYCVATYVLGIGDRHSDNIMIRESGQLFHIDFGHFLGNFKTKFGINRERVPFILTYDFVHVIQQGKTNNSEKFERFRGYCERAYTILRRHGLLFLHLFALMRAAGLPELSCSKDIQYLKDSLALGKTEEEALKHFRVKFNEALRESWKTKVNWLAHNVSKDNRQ
T1 sequence (P27986 whole entry partner): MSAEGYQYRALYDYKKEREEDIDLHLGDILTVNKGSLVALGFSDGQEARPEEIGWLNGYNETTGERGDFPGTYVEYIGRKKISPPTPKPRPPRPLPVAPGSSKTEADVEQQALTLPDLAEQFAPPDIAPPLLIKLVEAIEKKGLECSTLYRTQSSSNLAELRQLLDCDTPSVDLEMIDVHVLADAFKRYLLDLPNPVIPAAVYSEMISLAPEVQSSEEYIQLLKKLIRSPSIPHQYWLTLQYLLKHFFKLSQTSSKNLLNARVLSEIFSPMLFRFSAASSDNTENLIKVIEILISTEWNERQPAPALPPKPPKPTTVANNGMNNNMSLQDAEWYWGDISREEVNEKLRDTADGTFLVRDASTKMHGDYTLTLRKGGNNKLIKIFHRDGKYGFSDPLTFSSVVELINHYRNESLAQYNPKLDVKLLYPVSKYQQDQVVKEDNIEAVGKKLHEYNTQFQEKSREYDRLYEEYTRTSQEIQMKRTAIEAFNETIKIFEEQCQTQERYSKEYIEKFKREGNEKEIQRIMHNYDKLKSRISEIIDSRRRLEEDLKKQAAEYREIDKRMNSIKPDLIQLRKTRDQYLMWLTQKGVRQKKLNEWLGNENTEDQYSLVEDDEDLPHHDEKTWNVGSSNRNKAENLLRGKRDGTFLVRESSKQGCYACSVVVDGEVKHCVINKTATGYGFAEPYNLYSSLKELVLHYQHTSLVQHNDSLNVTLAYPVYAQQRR

By Ki is commonly meant the equilibrium dissociation constant of an inhibitor or competing ligand from its target. Regarding `Cc1c(-c2cncc(Cl)c2)nc2cc(F)cc(F)c2c1Nc1cc(N2CCOCC2)cnc1N1CCOCC1` [2-(5-chloro-3-pyridinyl)-N-(2,5-di-4-morpholinyl-3-pyridinyl)-5,7-difluoro-3-methyl-4-quinolinamine], the Ki came to 0.0112 µM.

For the molecule `Cc1c(-c2ccc(N3CCC(F)(F)CC3)nc2)nc2cc(F)cc(F)c2c1Nc1cc(N2CCOCC2)cnc1N1CCOCC1` [2-(6-(4,4-difluoro-1-piperidinyl)-3-pyridinyl)-N-(2,5-di-4-morpholinyl-3-pyridinyl)-5,7-difluoro-3-methyl-4-quinolinamine], the Ki came to 0.0435 µM.

`Cc1c(-c2ccc(N3CC[C@@H](N(C)C)C3)nc2)nc2cc(F)cc(F)c2c1Nc1cc(N2CCOCC2)cnc1N1CCOCC1` [2-(6-((3R)-3-(dimethylamino)-1-pyrrolidinyl)-3-pyridinyl)-N-(2,5-di-4-morpholinyl-3-pyridinyl)-5,7-difluoro-3-methyl-4-quinolinamine] registered an inhibitory constant (Ki) of 0.0284 µM.

With `Cc1c(-c2ccc(OCC3CC3)nc2)nc2cc(F)cc(F)c2c1Nc1cc(N2CCOCC2)cnc1N1CCOCC1` [2-(6-(cyclopropylmethoxy)-3-pyridinyl)-N-(2,5-di-4-morpholinyl-3-pyridinyl)-5,7-difluoro-3-methyl-4-quinolinamine], the affinity corresponds to a Ki of 0.0476 µM. In turn, `Cc1c(-c2ccc(N(C)C)nc2)nc2cc(F)cc(F)c2c1Nc1cncc(N2CCOCC2)c1` [2-(6-(dimethylamino)-3-pyridinyl)-5,7-difluoro-3-methyl-N-(5-(4-morpholinyl)-3-pyridinyl)-4-quinolinamine] showed a Ki of 0.18 µM.

On to `Cc1c(-c2ccc(N(C)C)nc2)nc2cc(F)cc(F)c2c1Nc1cc(N2CCOCC2)cnc1N1CCOCC1` [2-(6-(dimethylamino)-3-pyridinyl)-N-(2,5-di-4-morpholinyl-3-pyridinyl)-5,7-difluoro-3-methyl-4-quinolinamine], for which the affinity corresponds to a Ki of 0.0244 µM. Then `CCOc1ccc(-c2nc3cc(F)cc(F)c3c(Nc3cncc(N4CCOCC4)c3)c2C)cn1` [2-(6-ethoxy-3-pyridinyl)-5,7-difluoro-3-methyl-N-(5-(4-morpholinyl)-3-pyridinyl)-4-quinolinamine], with 0.291 µM.

Take `Cc1c(N2CCN(C(=O)OCC(C)C)CC2)nc2cc(F)cc(F)c2c1Nc1cncc(N2CCOCC2)c1` [2-methylpropyl 4-(5,7-difluoro-3-methyl-4-((5-(4-morpholinyl)-3-pyridinyl)amino)-2-quinolinyl)-1-piperazinecarboxylate]: affinity was put at a Ki of 0.108 µM. Then `Cc1c(-c2cc(O)ccc2S(C)(=O)=O)nc2cc(F)ccc2c1Nc1cc(N2CCOCC2)cnc1N1CCOCC1` [3-(4-((2,5-di-4-morpholinyl-3-pyridinyl)amino)-7-fluoro-3-methyl-2-quinolinyl)-4-(methylsulfonyl)phenol], with 0.0175 µM; and `Cc1c(-c2ccccn2)nc2cc(F)cc(F)c2c1Nc1cc(C#N)cc(N2CCOCC2)c1` [3-((5,7-difluoro-3-methyl-2-(2-pyridinyl)-4-quinolinyl)amino)-5-(4-morpholinyl)benzonitrile], with 0.00797 µM. Then `Cc1ccnc(-c2nc3c(C#N)cccc3c(Nc3cncc(N4CCOCC4)c3)c2C)c1` [3-methyl-2-(4-methyl-2-pyridinyl)-4-((5-(4-morpholinyl)-3-pyridinyl)amino)-8-quinolinecarbonitrile], with 0.0573 µM. Then `Cc1c(-c2ccccn2)nc2ncccc2c1Nc1cncc(N2CCOCC2)c1` [3-methyl-N-(5-(4-morpholinyl)-3-pyridinyl)-2-(2-pyridinyl)-1,8-naphthyridin-4-amine], with 0.716 µM. Take `Cc1c(-c2ccccn2)nc2cc(F)cc(F)c2c1Nc1cc(N2CCOCC2)cnc1-c1ccc(C#N)cc1` [4-(3-((5,7-difluoro-3-methyl-2-(2-pyridinyl)-4-quinolinyl)-amino)-5-(4-morpholinyl)-2-pyridinyl)benzonitrile]: the Ki worked out at 0.00551 µM.

In turn, `Cc1c(-c2ccccn2)nc2cc(F)cc(F)c2c1Nc1cc(N2CCOCC2)cnc1-c1ccc(O)cc1` [4-(3-((5,7-difluoro-3-methyl-2-(2-pyridinyl)-4-quinolinyl)-amino)-5-(4-morpholinyl)-2-pyridinyl)phenol] came in with a Ki of 0.000285 µM. Then `Cc1c(N2CCN(C(C)C)C(=O)C2)nc2cc(F)cc(F)c2c1Nc1cc(N2CCOCC2)cnc1N1CCOCC1` [4-(4-((2,5-di-4-morpholinyl-3-pyridinyl)amino)-5,7-difluoro-3-methyl-2-quinolinyl)-1-(1-methylethyl)-2-piperazinone], with 0.00237 µM. As to `CCN1CCN(c2nc3cc(F)cc(F)c3c(Nc3cc(N4CCOCC4)cnc3N3CCOCC3)c2C)CC1=O` [4-(4-((2,5-di-4-morpholinyl-3-pyridinyl)amino)-5,7-difluoro-3-methyl-2-quinolinyl)-1-ethyl-2-piperazinone], the inhibitory constant (Ki) came out at 0.00129 µM. On to `CCCN1CCN(c2nc3cc(F)cc(F)c3c(Nc3cc(N4CCOCC4)cnc3N3CCOCC3)c2C)CC1=O` [4-(4-((2,5-di-4-morpholinyl-3-pyridinyl)amino)-5,7-difluoro-3-methyl-2-quinolinyl)-1-propyl-2-piperazinone], for which the affinity, expressed as Ki, was 0.00184 µM. Then `Cc1c(N2CCN(C(=O)N(C)C)CC2)nc2cc(F)cc(F)c2c1N(C(=O)N(C)C)c1cncc(N2CCOCC2)c1` [4-(4-((dimethylcarbamoyl)(5-(4-morpholinyl)-3-pyridinyl)-amino)-5,7-difluoro-3-methyl-2-quinolinyl)-N,N-dimethyl-1-piperazinecarboxamide], with 0.0816 µM; and `Cc1c(N2CCN(C(C)C)C(=O)C2)nc2cc(F)cc(F)c2c1Nc1cncc(N2CCOCC2)c1` [4-(5,7-difluoro-3-methyl-4-((5-(4-morpholinyl)-3-pyridinyl)-amino)-2-quinolinyl)-1-(1-methylethyl)-2-piperazinone], with 0.024 µM. Then `CCN1CCN(c2nc3cc(F)cc(F)c3c(Nc3cncc(N4CCOCC4)c3)c2C)CC1=O` [4-(5,7-difluoro-3-methyl-4-((5-(4-morpholinyl)-3-pyridinyl)-amino)-2-quinolinyl)-1-ethyl-2-piperazinone], with 0.0132 µM; and `CCCN1CCN(c2nc3cc(F)cc(F)c3c(Nc3cncc(N4CCOCC4)c3)c2C)CC1=O` [4-(5,7-difluoro-3-methyl-4-((5-(4-morpholinyl)-3-pyridinyl)-amino)-2-quinolinyl)-1-propyl-2-piperazinone], with 0.00918 µM. For the molecule `Cc1c(N2CCN(C(=O)N(C)C)CC2)nc2cc(F)cc(F)c2c1Nc1cncc(N2CCOCC2)c1` [4-(5,7-difluoro-3-methyl-4-((5-(4-morpholinyl)-3-pyridinyl)-amino)-2-quinolinyl)-N,N-dimethyl-1-piperazinecarboxamide], the Ki was found to be 0.0725 µM. In turn, `Cc1c(N2CCN(C(=O)NC(C)C)CC2)nc2cc(F)cc(F)c2c1Nc1cncc(N2CCOCC2)c1` [4-(5,7-difluoro-3-methyl-4-((5-(4-morpholinyl)-3-pyridinyl)-amino)-2-quinolinyl)-N-(1-methylethyl)-1-piperazinecarboxamide] yielded an inhibition constant (Ki) of 0.0506 µM. Then `CCNC(=O)N1CCN(c2nc3cc(F)cc(F)c3c(Nc3cncc(N4CCOCC4)c3)c2C)CC1` [4-(5,7-difluoro-3-methyl-4-((5-(4-morpholinyl)-3-pyridinyl)-amino)-2-quinolinyl)-N-ethyl-1-piperazinecarboxamide], with 0.0248 µM; and `CNC(=O)N1CCN(c2nc3cc(F)cc(F)c3c(Nc3cncc(N4CCOCC4)c3)c2C)CC1` [4-(5,7-difluoro-3-methyl-4-((5-(4-morpholinyl)-3-pyridinyl)-amino)-2-quinolinyl)-N-methyl-1-piperazinecarboxamide], with 0.0165 µM; and `Cc1c(-c2ccccn2)nc2c(C#N)cccc2c1Nc1cc(N2CCOCC2)cnc1N1CCOCC1` [4-((2,5-di-4-morpholinyl-3-pyridinyl)amino)-3-methyl-2-(2-pyridinyl)-8-quinolinecarbonitrile], with 0.0544 µM. Then `Cc1c(-c2ccccn2)nc2cc(F)cc(F)c2c1Nc1ccc(C#N)c(N2CCOCC2)c1` [4-((5,7-difluoro-3-methyl-2-(2-pyridinyl)-4-quinolinyl)amino)-2-(4-morpholinyl)benzonitrile], with 0.484 µM; and `COc1cncc(-c2cc(C#N)c(N3CCOCC3)cc2Nc2c(C)c(-c3ccccn3)nc3cc(F)cc(F)c23)c1` [4-((5,7-difluoro-3-methyl-2-(2-pyridinyl)-4-quinolinyl)amino)-5-(5-methoxy-3-pyridinyl)-2-(4-morpholinyl)benzonitrile], with 0.00787 µM; and `COc1cncc(-c2ncc(N3CCOCC3)cc2Nc2c(C)c(-c3cc(C)ccn3)nc3c(C#N)cccc23)c1` [4-((5′-methoxy-5-(4-morpholinyl)-2,3′-bipyridin-3-yl)amino)-3-methyl-2-(4-methyl-2-pyridinyl)-8-quinolinecarbonitrile], with 0.233 µM. Then `COc1cc(-c2nc3cc(F)cc(F)c3c(Nc3cncc(N4CCOCC4)c3)c2C)ccn1` [5,7-difluoro-2-(2-methoxy-4-pyridinyl)-3-methyl-N-(5-(4-morpholinyl)-3-pyridinyl)-4-quinolinamine], with 0.15 µM; and `Cc1c(N2CCN(C(=O)c3ncc[nH]3)CC2)nc2cc(F)cc(F)c2c1Nc1cncc(N2CCOCC2)c1` [5,7-difluoro-2-(4-(1H-imidazol-2-ylcarbonyl)-1-piperazinyl)-3-methyl-N-(5-(4-morpholinyl)-3-pyridinyl)-4-quinolinamine], with 0.0544 µM. As to `Cc1c(N2CCN(S(=O)(=O)c3ccccc3F)CC2)nc2cc(F)cc(F)c2c1Nc1cncc(N2CCOCC2)c1` [5,7-difluoro-2-(4-((2-fluorophenyl)sulfonyl)-1-piperazinyl)-3-methyl-N-(5-(4-morpholinyl)-3-pyridinyl)-4-quinolinamine], the inhibition constant (Ki) was 0.0664 µM. Then `Cc1c(N2CCN(S(=O)(=O)c3cccc(F)c3)CC2)nc2cc(F)cc(F)c2c1Nc1cncc(N2CCOCC2)c1` [5,7-difluoro-2-(4-((3-fluorophenyl)sulfonyl)-1-piperazinyl)-3-methyl-N-(5-(4-morpholinyl)-3-pyridinyl)-4-quinolinamine], with 0.0611 µM.

(Values after US8940724B2, “Quinoline derivitives and their uses” (Amgen Inc., priority 2009, dated 2015).)
